One assay deals with HT-1080. Description: Cytotoxicity against human HT-1080 cells assessed as reduction in cell growth measured for 72 hrs by MTT assay. The format is functional, cell-based. Particulars: HT-1080, 72 h. (Tetrazolium dyes change colour on reduction, which living cells bring about.)
For the next assay, the system named is MG-22A. Briefly: Cytotoxicity against mouse MG-22A cells assessed as reduction in cell growth measured for 72 hrs by MTT assay. In kind it is functional, cell-based.
For assay [1], the system named is Human immunodeficiency virus 1. Description: Antiviral activity against HIV-1 IIIB infected in human MT2 cells assessed as reduction in virus-induced cytopathic effect incubated for 4 days by spectrophotometric based MTT assay. Particulars: Human immunodeficiency virus 1, IIIB, MT2, 96 h. In kind it is functional, organism-based. In general terms: Cytopathic effects are the visible damage that an infection or toxin causes in cultured cells.

The target in assay [2] is Human immunodeficiency virus type 1 reverse transcriptase (Human immunodeficiency virus 1, UniProt Q72547). Description: Inhibition of recombinant HIV-1 reverse transcriptase.
Another assay deals with Aspergillus fumigatus. Description: Antifungal activity against Aspergillus fumigatus ATCC 66567 assessed as reduction in fungal growth. The format is functional.
For the next assay, the system named is Penicillium chrysogenum. Briefly: Antifungal activity against Penicillium chrysogenum ATCC 20044 assessed as reduction in fungal growth. The format is functional.
A further assay concerns Fusarium solani. Briefly: Antifungal activity against Fusarium solani ATCC 20327 assessed as reduction in fungal growth. In kind it is functional.
For a further assay, the system named is Mythimna separata. Briefly: Toxicity in Mythimna separata assessed as lethal dose. In kind it is organism-based.
The next assay has as its system Plutella xylostella. Description: Toxicity in Plutella xylostella assessed as lethal dose. The format is organism-based.
Another assay has as its system Escherichia coli. Description: Antibacterial activity against Escherichia coli. The format is functional.
The subject of assay [3] is Bacillus subtilis. Briefly: Antibacterial activity against Bacillus subtilis. The format is functional.
The target of a further assay is Acetylcholinesterase (Homo sapiens, UniProt P22303). Briefly: Inhibition of AChE (unknown origin) using acetylthiocholine iodide as substrate by Ellman's method.
Sequence of Acetylcholinesterase (P22303 whole entry): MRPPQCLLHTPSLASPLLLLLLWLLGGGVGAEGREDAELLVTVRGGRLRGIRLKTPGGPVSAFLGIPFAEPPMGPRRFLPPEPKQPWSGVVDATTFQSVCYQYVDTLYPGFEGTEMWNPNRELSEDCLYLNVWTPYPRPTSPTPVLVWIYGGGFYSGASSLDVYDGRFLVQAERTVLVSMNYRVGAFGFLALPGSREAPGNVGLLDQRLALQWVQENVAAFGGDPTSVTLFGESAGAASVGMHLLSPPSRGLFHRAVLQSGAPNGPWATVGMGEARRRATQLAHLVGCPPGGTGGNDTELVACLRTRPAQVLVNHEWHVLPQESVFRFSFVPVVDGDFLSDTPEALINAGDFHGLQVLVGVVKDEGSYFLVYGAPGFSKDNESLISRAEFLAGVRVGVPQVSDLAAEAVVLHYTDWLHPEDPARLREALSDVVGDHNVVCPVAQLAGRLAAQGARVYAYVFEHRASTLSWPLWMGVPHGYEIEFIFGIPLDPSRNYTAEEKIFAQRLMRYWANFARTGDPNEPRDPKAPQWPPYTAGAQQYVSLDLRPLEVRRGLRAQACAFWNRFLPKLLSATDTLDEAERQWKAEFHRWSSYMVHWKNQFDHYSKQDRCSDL
The next assay deals with Pseudomonas aeruginosa. Description: Antibacterial activity against Pseudomonas aeruginosa PAO1 assessed as reduction in bacterial growth by broth micro-dilution method. In kind it is functional.
The subject of a further assay is Staphylococcus aureus. Description: Antibacterial activity against methicillin-resistant Staphylococcus aureus assessed as reduction in bacterial cell growth by broth micro-dilution method. In kind it is functional. For orientation: In broth dilution the organism is exposed to a series of concentrations in liquid medium.
Assay [4] deals with Staphylococcus epidermidis. Briefly: Antibacterial activity against methicillin-resistant Staphylococcus epidermidis 3382 assessed as reduction in bacterial cell growth by broth micro-dilution method. The format is functional.
The test system of the next assay is Enterococcus durans. Briefly: Antibacterial activity against Enterococcus durans B-603 (all Russian collections of micro-organism) assessed as reduction in bacterial growth by broth micro-dilution method. The format is functional.
In assay [5] the test system is Bacillus subtilis. Briefly: Antibacterial activity against Bacillus subtilis B-407 (all Russian collections of micro-organism) assessed as reduction in bacterial growth by broth micro-dilution method. The format is functional.
The subject of the next assay is Giardia intestinalis. Briefly: Antiparasitic activity against Giardia intestinalis assessed as reduction in parasite growth incubated for 24 hrs by MTT assay. In kind it is functional, organism-based. Particulars: Giardia duodenalis.
Another assay has as its system Trichomonas vaginalis. Briefly: Antiparasitic activity against Trichomonas vaginalis assessed as reduction in parasite growth measured for 24 hrs by MTT assay. In kind it is functional, organism-based.
Assay [6] deals with Human immunodeficiency virus 1. Briefly: Antiviral activity against HIV-1 infected in human MT4 cells. Particulars: Human immunodeficiency virus 1, MT4. In kind it is functional, organism-based.
For assay [7], the target named is T1, Angiotensin-converting enzyme (Homo sapiens, UniProt P12821). Description: Binding affinity to ACE (unknown origin) assessed as inhibition constant.
T1 sequence (P12821 whole entry): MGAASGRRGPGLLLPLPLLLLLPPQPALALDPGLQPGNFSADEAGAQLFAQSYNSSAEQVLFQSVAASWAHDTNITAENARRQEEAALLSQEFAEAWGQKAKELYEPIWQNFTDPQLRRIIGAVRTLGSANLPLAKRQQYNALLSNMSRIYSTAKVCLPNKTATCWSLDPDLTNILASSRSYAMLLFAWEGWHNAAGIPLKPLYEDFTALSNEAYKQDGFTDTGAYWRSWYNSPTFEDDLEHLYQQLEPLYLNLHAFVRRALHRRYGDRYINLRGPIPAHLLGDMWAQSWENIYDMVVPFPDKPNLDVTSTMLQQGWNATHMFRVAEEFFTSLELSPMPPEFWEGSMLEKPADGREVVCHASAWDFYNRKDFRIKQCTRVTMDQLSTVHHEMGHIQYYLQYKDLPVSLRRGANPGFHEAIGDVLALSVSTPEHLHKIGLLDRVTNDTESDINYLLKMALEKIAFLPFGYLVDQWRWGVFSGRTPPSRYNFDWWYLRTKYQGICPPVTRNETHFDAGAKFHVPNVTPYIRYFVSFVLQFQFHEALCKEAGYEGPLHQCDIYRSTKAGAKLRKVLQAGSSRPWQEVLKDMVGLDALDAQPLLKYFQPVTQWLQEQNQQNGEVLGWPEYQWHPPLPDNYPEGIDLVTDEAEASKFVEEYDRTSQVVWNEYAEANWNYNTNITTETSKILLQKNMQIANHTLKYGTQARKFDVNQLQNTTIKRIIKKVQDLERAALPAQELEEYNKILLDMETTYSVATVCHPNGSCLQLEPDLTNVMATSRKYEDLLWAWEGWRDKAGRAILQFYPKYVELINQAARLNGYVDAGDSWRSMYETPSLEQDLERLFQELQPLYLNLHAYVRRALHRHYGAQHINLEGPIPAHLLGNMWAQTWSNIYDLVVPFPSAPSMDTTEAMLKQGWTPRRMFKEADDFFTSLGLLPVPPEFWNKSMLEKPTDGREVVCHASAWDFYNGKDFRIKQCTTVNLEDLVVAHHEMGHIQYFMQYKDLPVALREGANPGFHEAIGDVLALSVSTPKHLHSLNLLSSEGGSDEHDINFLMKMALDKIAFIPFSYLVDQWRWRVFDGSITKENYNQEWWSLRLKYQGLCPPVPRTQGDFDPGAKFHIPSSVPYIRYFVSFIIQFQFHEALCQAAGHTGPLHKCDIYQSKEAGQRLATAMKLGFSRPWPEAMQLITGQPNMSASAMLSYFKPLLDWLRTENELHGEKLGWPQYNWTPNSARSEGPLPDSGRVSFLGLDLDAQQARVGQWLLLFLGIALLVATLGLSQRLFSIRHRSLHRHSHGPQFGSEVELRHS
The test system of the next assay is HeLa. Briefly: Growth inhibition of human HeLa cells measured for 48 hrs by SRB assay. In kind it is functional.
Another assay relates to T47D. Description: Growth inhibition of human T47D cells measured for 48 hrs by SRB assay. The format is functional.
The next assay has as its system WiDr. Briefly: Growth inhibition of human WiDr cells measured for 48 hrs by SRB assay. In kind it is functional.
The target of assay [8] is T1, Angiotensin-converting enzyme. Briefly: Inhibition of ACE (unknown origin) using Hip-His-Leu-OH peptide as substrate by fluorimetric analysis.
The test system of assay [9] is MDA-MB-435. Description: Growth inhibition of human MDA-MB-435 cells measured for 48 hrs by SRB assay. In kind it is functional.
In assay [10] the test system is MDA-MB-435. Description: Cytotoxicity against human MDA-MB-435 cells assessed as reduction in cell viability incubated for 48 hrs by SRB assay. Particulars: MDA-MB-435, 48 h. In kind it is functional, cell-based.
For a further assay, the system named is COLO 205. Description: Antiproliferative activity against human COLO 205 cells assessed as reduction in cell growth incubated for 24 hrs by MTT assay. The format is functional, cell-based. Particulars: COLO 205, 24 h.
Another assay relates to COLO 320. Briefly: Antiproliferative activity against human COLO 320 cells assessed as reduction in cell growth incubated for 24 hrs by MTT assay. Particulars: COLO 320, 24 h. In kind it is functional, cell-based.
The next assay relates to A2780. Briefly: Antiproliferative activity against human A2780 cells assessed as reduction in cell growth incubated for 24 hrs by MTT assay. In kind it is functional, cell-based. Particulars: A2780, 24 h.

The structures appear in SMILES notation. Converted amounts (≈) assume the structure as drawn.

The term IC50 denotes the concentration that inhibits the measured activity by half. As to `CCCCCCCCCC[Si](C)(CCCCCCCCCC)OCC[N+](C)(C)C.[I-]`, the values for the IC50 with HT-1080 and in the assay on MG-22A were 0.3 µg/mL and 1 µg/mL, respectively.

For the molecule `C[Si](O)(O[Si](C)(CCCn1cnc2c(N)ncnc21)c1ccccc1)c1ccccc1` (stereo not given), the results for the IC50 in assay [1] and in assay [2] were 10000 nM and 6000 nM, respectively.

As a reminder, the MIC is the least concentration at which growth counts as inhibited. Consider `COc1ccc(O)c(/C=N/CCC[Si-]234OCC[N+]2(CCO3)CCO4)c1` (stereo not given), for which the MIC in the assay on Aspergillus fumigatus, in the assay on Penicillium chrysogenum and with Fusarium solani was 0.08 µg/mL (≈ 0.218 µM) each time.

What is called LC50 is the concentration lethal to half of the exposed cells or organisms. Regarding `CCS(=O)(=O)c1cc([Si](C)(C)C)cnc1-c1nc2cc(S(=O)(=O)C(F)(F)F)ccc2o1`, the figures for the LC50 in the assay with Mythimna separata and in the assay with Plutella xylostella were 4.8 µg/mL (≈ 9.74 µM) and 0.3 µg/mL (≈ 0.609 µM), respectively.

Take `CCN(CC)CC.S=C(S)NCCC[Si-]123OCC[N+]1(CCO2)CCO3` (stereo not given): the figures for the MIC in the assay on Escherichia coli and in the assay on Bacillus subtilis [3] were 0.765 µg/mL and 0.8 µg/mL, respectively.

As for `C[Si]1(Cl)C=C/C(=N\c2ccccc2)C1=P(c1ccccc1)(c1ccccc1)c1ccccc1` (stereo not given), the 50% inhibitory concentration (IC50) against Acetylcholinesterase turned out to be 113 nM.

In the case of `Fc1ccc(/N=C/c2c(OCc3cn(CCC[Si-]456OCC[N+]4(CCO5)CCO6)nn3)ccc3ccccc23)cc1` (stereo not given), the minimum inhibitory concentration (MIC) in the assay on Pseudomonas aeruginosa is 13.2 µg/mL (≈ 23.6 µM); with Staphylococcus aureus it was 3.25 µg/mL (≈ 5.79 µM); in assay [4], 3.25 µg/mL (≈ 5.79 µM).

For the molecule `O=C(NCCC[Si-]123OCC[N+]1(CCO2)CCO3)c1ccc[nH]1` (stereo not given), the MIC in the assay on Enterococcus durans stood at 3.1 µg/mL (≈ 9.53 µM); in the assay on Bacillus subtilis [5], 6.2 µg/mL (≈ 19.1 µM).

`CC1C[N+]23CC(C)O[Si-]2(CCC/N=C/c2ccc4c5c6c(ccc25)C=CCC6=CC4)(O1)OC(C)C3` (stereo not given): the IC50 turned out to be 53300 nM in the assay with Giardia intestinalis and 1750 nM with Trichomonas vaginalis.

For orientation: EC50 means the midpoint of the concentration-response curve. A high value points to weaker potency. In assay [6], `Cc1cccc(C(O)c2c(C(C)C)c(=O)[nH]c(=O)n2COCc2ccccc2)c1` (stereo not given) yielded an EC50 of 200 nM.

In general, Ki refers to a measure of affinity in units of concentration, obtained from inhibition or displacement. As to `CC(C)C[C@H](C[Si](O)(O)CNC(=O)CCc1ccccc1)C(=O)NC(=O)N[C@@H](CC(C)C)C(=O)O`, in assay [7], the Ki stood at 10 nM.

The term GI50 denotes the concentration that inhibits growth by half. A lower GI50 goes with greater sensitivity of the cells. In the case of `CC(C)(C)[Si](Oc1ccc2oc(=O)ccc2c1)(c1ccccc1)c1ccccc1`, the GI50 in the assay with HeLa was determined as 24100 nM; with T47D it was 26600 nM; in the assay with WiDr, 32200 nM.

As to `CC(CS)C(=O)N1C[Si](C)(C)C[C@H]1C(=O)O` (mixture of isomers), the IC50 in assay [8] was 43 nM.

With `CC[C@@]1(O)C(=O)OCc2c1cc1n(c2=O)Cc2c-1nc1ccc(O)cc1c2[Si](C)(C)C(C)(C)C` [AR-67], halving of growth with MDA-MB-435 [9] (GI50) required 21 nM. Further, the IC50 in the assay on MDA-MB-435 [10] came out at 14 nM.

For the molecule `CC[C@@]1(O)C(=O)OCc2c1cc1n(c2=O)Cc2c-1nc1ccccc1c2CC[Si](C)(C)C` [COSITECAN], the IC50 in the assay on COLO 205 worked out at 1.5 nM; with COLO 320, 1.5 nM; with A2780, 1.8 nM.

Source of the values: ChEMBL document CHEMBL6177939, “The role of silicon in drug discovery: a review” (RSC Med Chem, 2024).
